From US20200046658A1, “PHARMACEUTICAL COMPOSITION FOR INDUCING EXERCISE MIMETIC EFFECT” (CELLVERTICS CO., LTD., priority 2015, published 2020)
Structures can show the parent of a compound that is named as a salt. Marks after values point to notes of the source that are not given here.

What was measured:
[1] = test system: mouse skeletal muscle cells (C2C12); experiment: Western blot of p-AMPK, PPAR-δ and PGC-1α in differentiating C2C12 cells; type: cell-based; settings: versus untreated control
Experimental: C2C12 cells (mouse skeletal cell line) were seeded onto a 6-well plate in a CO2 incubator at 37° C. and cultured in a DMEM medium containing 10% FBS and 1% antibiotics to about 80% confluency. After replacing the medium with one containing 1% FBS, differentiation was conducted for 3 days. Then, after replacing the medium with one containing 1% FBS and then treating with a drug, experiment was conducted 24 hours later.
The protein content of the extract was measured by the Bradford's method. The extracted proteins (20-30 μg) were loaded on a 10% SDS-PAGE gel. Western blot assay was conducted using primary antibodies for AMPKα, phosphorylated AMPKα, PPARδ and PGC-1α. Images were obtained manually using the Kodak GBX developer and a fixative reagent.
Specifically, after treating differentiating C2C12 cells with the compounds at different concentrations (10 μM, 30 μM, 50 μM), the expression of activated (phosphorylated) AMPK (p-AMPK), PPAR-δ and PGC-1α was investigated by western blot.

[2] = test system: aorta and cardiac muscle tissue; experiment: mRNA expression of AT1R, eNOS, SOD, gp91-phox, TNFα in aorta and cardiac muscle of SHR; type: in vivo, rat
Experimental: (§1) The animals of the group I were anesthetized at 4 weeks of age while the rats of other groups were anesthetized at 8 weeks of age after being treated for 4 weeks. […] The recovered organs were kept in a refrigerator at −80° C. or in 10% formalin for fixation.
Full-length RNA was extracted using the TriZol reagent according to the manufacturer's instructions. Complementary DNA was synthesized from the full-length RNA using the Power cDNA Synthesis kit and polymerase chain reaction was conducted for angiotensin II type I receptor (AT1R), endothelial nitric oxide synthase (eNOS), superoxide dismutase (SOD), gp91-phox (NADPH), tumor necrosis factor-alpha (TNF-α) and GAPDH using the PCR Premix kit.
The mRNA expression level of the genes related with vasoconstriction, nitric oxide production, oxidative stress and inflammation in the aorta and cardiac muscle tissue was investigated by […] for the 4-week-old basal rat (I), midodrine-administered rat (II), atenolol-administered rat (III) and 8-week-old unadministered control group rat (IV).

[3] = test system: spontaneously hypertensive rat (SHR); experiment: ATP level in tissues of SHR by ELISA; type: in vivo; settings: versus control group SHRs, FIG. 5
Experimental: 0.02 g of liver tissue was homogenized in 500 μL of PBS. The homogenate was centrifuged at 1500×g (or 5000 rpm) for 15 minutes and the supernatant was subjected to measurement. After pouring 100 μL of a reference material or sample to an adequate well of an antibody-precoated microtiter plate, 10 μL of the residual solution was added to the sample. After adding 50 μL of a conjugate to each well and mixing, the plate was covered with a lid and incubated at 37° C. for 1 hour. After adding 50 μL of substrate A or B to each well, incubation was conducted at 37° C. for 15 minutes. After adding a stop solution to each well, optical density was measured at 450 nm using a microplate reader.
The level of ATP in the heart, skeletal muscle and liver was measured by ELISA for the 4-week-old basal rat (I), midodrine-administered rat (II), atenolol-administered rat (III) and 8-week-old unadministered control group rat (IV).

[4] = test system: spontaneously hypertensive rat (SHR); experiment: Serum inflammatory markers, reactive oxygen species and adiponectin in SHR; type: in vivo; settings: 8 weeks old, drug for 4 weeks, mean±SD; for ROS: blood
Experimental: as §1
The concentration of total cholesterol, HDL cholesterol, LDL cholesterol and triglyceride was measured by enzymatic colorimetry (Roche Diagnostics GmbH; Mannheim, Germany). Also, serum assays for inflammatory markers were conducted using a […] cytokine Milliplex panel (Millipore Corporation, Billerica, Mass., USA) as recommended for cytokines (interleukin (IL)-1α, IL-1β, IL-6, IL-4, IL-10 and TNF-α). Acquisition was performed on a Luminex 100 platform and data analysis was carried out using the Multiplex analyzer. Reactive oxygen species and adiponectin were measured using the ELISA kit (MBS815494, Mybiosource). The measured blood adiponectin level was calibrated for the visceral fat weight (g).

[5] = Body weight, cardiac weight and abdominal fat of SHR; type: in vivo, rat; settings: 8 weeks old, drug in drinking water for 4 weeks (midodrine 0.2 mg/kg/day, atenolol 1 mg/kg/day), mean±SD
Experimental: as §1
Body weight and abdominal fat were measured and compared for the midodrine-administered rat (II), atenolol-administered rat (III) and 8-week-old unadministered hypertension control group rat (IV).

[6] = test system: spontaneously hypertensive rat (SHR); experiment: Echocardiographic examination of spontaneously hypertensive rats; type: in vivo
Excerpt: Spontaneously hypertensive rat (SHR) is an animal model in which hereditary hypertension is expressed. It is known that the hypertension which is the most similar to human primary hypertension is expressed. In SHR, blood pressure begins to increase around 4-6 weeks of age and hypertension is developed seriously at 8-12 weeks. SHR is widely used in studies as an animal mode of primary hypertension, especially hypertension with cardiac lesions, because it is frequently accompanied damage to the hypertensive target organs, such as cardiac hypertrophy, heart failure, renal disorder, etc.
3-week-old spontaneously hypertensive rats (SHRs) were kept under a standardized condition (21° C., 41-62% humidity) with periodic light/dark (10/14 hour) cycles and were freely allowed to access water and laboratory feed. All the animal experiments were approved by the Korea University Institutional Animal Care and Use Committee (KUIACUC-2012-100) and were in accordance with the Guideline for the Care and Use of Laboratory Animals.
After anesthetization by intramuscular injection of Zoletil (8 mg/kg) and xylazine (2 mg/kg), the rats were laid on their left sides and M-mode echo images were obtained. The examination was conducted using Vivid 7 (GE Medical Systems, Milwaukee, Wis., USA) equipped with a 12-MHz transducer. After acquiring optimized 2-dimensional short-axis images for the left ventricle at the papillary muscle level, M-mode tracing and echocardiographic images were recorded at a speed of 100 mm/s.

[7] = C2C12, over 10 μM, 30 μM, 50 μM
[8] = SHR, 8 weeks old, drug in drinking water for 4 weeks (midodrine 0.2 mg/kg/day, atenolol 1 mg/kg/day), mean±SD

Q: With `COc1ccc(OC)c(C(O)CNC(=O)C(C)N)c1` (stereo not drawn) [Compound 7, 2-amino-N-(2-(2,5-dimethoxyphenyl)-2-hydroxyethyl)propanamide] as the molecule, how does the “expression of p-AMPK” value ([1]; C2C12, 10 μM) read?
A: significant increase

Q: And the “expression of PPAR-δ” value ([1]; C2C12, 30 μM)?
A: significant increase

Q: And the “expression of p-AMPK” value ([1]; C2C12, 50 μM)?
A: significant increase

Q: And the “expression of PPAR-δ” value [1, 7]?
A: concentration-dependent increase

Q: What about the “expression of p-AMPK” value [1, 7] of the same molecule?
A: concentration-dependent increase

Q: What does the source list for `CCc1ccc(OC)c(C(O)CNC(=O)CN)c1` (stereo not drawn) [Compound 9, 2-amino-N-(2-(5-ethyl-2-methoxyphenyl)-2-hydroxyethyl)acetamide hydrochloride]?
A: expression of PGC-1α ([1]; C2C12, 30 μM): significantly increased; expression of p-AMPK ([1]; C2C12, 30 μM): significantly increased; expression of PGC-1α ([1]; C2C12, 50 μM): significantly increased; expression of p-AMPK ([1]; C2C12, 50 μM): significantly increased; expression of PGC-1α [1, 7]: overall increase; expression of PPAR-δ [1, 7]: overall increase; expression of p-AMPK [1, 7]: overall increase

Q: Which “expression of PGC-1α” value ([1]; C2C12, 50 μM) does the source give for `COc1cc(OC)cc(C(O)CNC(=O)CN)c1` (stereo not drawn) [Compound 8, 2-amino-N-(2-(3,5-dimethoxyphenyl)-2-hydroxyethyl)acetamide hydrochloride] here?
A: significantly increased

Q: What about the “expression of p-AMPK” value ([1]; C2C12, 50 μM) of the same molecule?
A: significantly increased

Q: What about the “expression of PGC-1α” value [1, 7] of the same molecule?
A: overall increase

Q: What about the “expression of PPAR-δ” value [1, 7] of the same molecule?
A: overall increase

Q: And the “expression of p-AMPK” value [1, 7]?
A: overall increase

Q: What does the source list for `COc1ccc(OC)c(C(O)CNC(=O)C(N)Cc2ccccc2)c1` (stereo not drawn) [Compound 5, 2-amino-N-(2-(2,5-dimethoxyphenyl)-2-hydroxyethyl)-3-phenylpropanamide]?
A: expression of PPAR-δ ([1]; C2C12, 30 μM): significantly increased; expression of p-AMPK ([1]; C2C12, 30 μM): significantly increased

Q: Which “expression of PPAR-δ” value ([1]; C2C12, 10 μM) does the source give for `NCC(=O)NCC(O)c1ccccc1` (stereo not drawn) [Compound 10, 2-amino-N-(2-hydroxy-2-phenylethyl)acetamide hydrochloride] here?
A: significantly increased

Q: What about the “expression of p-AMPK” value ([1]; C2C12, 30 μM) of the same molecule?
A: significantly increased

Q: And the “expression of PPAR-δ” value ([1]; C2C12, 50 μM)?
A: significantly increased

Q: What about the “expression of p-AMPK” value ([1]; C2C12, 50 μM) of the same molecule?
A: significantly increased

Q: For `CC(C)NCC(O)COc1ccc(CC(N)=O)cc1` (stereo not drawn) [Atenolol], which “TNFα expression in the aorta” value ([2]; among groups I-IV, FIG. 3A) is on record?
A: moderate

Q: What about the “expression of angiotensin II AT1R mRNA in the cardiac muscle” value ([2]; among groups I-IV, FIG. 3B) of the same molecule?
A: moderate

Q: What about the “expression of angiotensin II AT1R mRNA in the aorta” value ([2]; versus control groups I and IV, FIG. 3A) of the same molecule?
A: lower

Q: What about the “ATP level in heart tissue” value [3] of the same molecule?
A: higher

Q: What about the Adiponectin ([4]; blood level calibrated for the visceral fat weight (g)) of the same molecule?
A: 6136.5 ± 574.7^bc ng/ml/g

Q: What about the ROS [4] of the same molecule?
A: 223.1 ± 45.4^a ng/ml

Q: And the ROS ([4]; listed as atenolol)?
A: lower

Q: And the IL-1α ([4]; serum)?
A: 5.51 ± 2.64^c μg/ml

Q: What about the IL-1β ([4]; serum) of the same molecule?
A: 2.02 ± 1.53^a μg/ml

Q: What about the IL-4 ([4]; serum) of the same molecule?
A: 2.94 ± 0.90^b μg/ml

Q: And the IL-6 ([4]; serum)?
A: 5.62 ± 1.42^a μg/ml

Q: What about the IL-10 ([4]; serum) of the same molecule?
A: 15.33 ± 2.79^b μg/ml

Q: And the TNF-α ([4]; serum)?
A: 8.35 ± 1.36^b μg/ml

Q: What about the IL-1α ([4]; serum, listed as atenolol) of the same molecule?
A: significantly increased

Q: What about the IL-4 ([4]; serum, listed as atenolol) of the same molecule?
A: slightly higher

Q: And the IL-10 ([4]; serum, listed as atenolol)?
A: slightly higher

Q: What about the TNF-α ([4]; serum, listed as atenolol) of the same molecule?
A: significantly increased

Q: What about the Body weight [5] of the same molecule?
A: 296.46 ± 16.73^b g

Q: And the Cardiac weight [5]?
A: 1.47 ± 0.15^a g

Q: And the Body weight ([5]; listed as atenolol)?
A: highest

Q: And the left ventricular performance ([6]; 8-week-old SHR, versus unadministered control (group IV))?
A: higher

Q: What about the “Diastolic left ventricular diaphragm” value [6, 8] of the same molecule?
A: 1.50 ± 0.13^a mm

Q: What about the “Diastolic left ventricular inner size” value [6, 8] of the same molecule?
A: 6.33 ± 0.35^a mm

Q: What about the “Diastolic left ventricular wall” value [6, 8] of the same molecule?
A: 1.67 ± 0.16 mm

Q: What about the “Left ventricular ejection fraction” value [6, 8] of the same molecule?
A: 82.00 ± 5.31^a %

Q: And the “Left ventricular fractional shortening” value [6, 8]?
A: 45.70 ± 5.82^a %

Q: What about the “Left ventricular mass according to ASE” value [6, 8] of the same molecule?
A: 1.10 ± 0.07^a g

Q: And the “Systolic left ventricular inner size” value [6, 8]?
A: 3.43 ± 0.28^a mm
